ChEMBL document CHEMBL3860080, “Development of BCR-ABL degradation inducers via the conjugation of an imatinib derivative and a cIAP1 ligand” (Bioorg Med Chem Lett, 2016)
Active and inactive are the calls of the source. The calls are words filed in the database; no cut-off is given here.

What was measured:
[1] = target: T1, Baculoviral IAP repeat-containing protein 2/Tyrosine-protein kinase ABL1/Breakpoint cluster region protein (Homo sapiens) (UniProt P00519+P11274+Q13490); test: Induction of cIAP1-mediated BCR-ABL protein degradation in human K562 cells assessed as BCR-ABL to beta-tubulin ratio at 30 uM after 8 hrs by Western blot analysis relative to control; assay type: cell-based
T1 sequence (P00519 whole entry, looked up): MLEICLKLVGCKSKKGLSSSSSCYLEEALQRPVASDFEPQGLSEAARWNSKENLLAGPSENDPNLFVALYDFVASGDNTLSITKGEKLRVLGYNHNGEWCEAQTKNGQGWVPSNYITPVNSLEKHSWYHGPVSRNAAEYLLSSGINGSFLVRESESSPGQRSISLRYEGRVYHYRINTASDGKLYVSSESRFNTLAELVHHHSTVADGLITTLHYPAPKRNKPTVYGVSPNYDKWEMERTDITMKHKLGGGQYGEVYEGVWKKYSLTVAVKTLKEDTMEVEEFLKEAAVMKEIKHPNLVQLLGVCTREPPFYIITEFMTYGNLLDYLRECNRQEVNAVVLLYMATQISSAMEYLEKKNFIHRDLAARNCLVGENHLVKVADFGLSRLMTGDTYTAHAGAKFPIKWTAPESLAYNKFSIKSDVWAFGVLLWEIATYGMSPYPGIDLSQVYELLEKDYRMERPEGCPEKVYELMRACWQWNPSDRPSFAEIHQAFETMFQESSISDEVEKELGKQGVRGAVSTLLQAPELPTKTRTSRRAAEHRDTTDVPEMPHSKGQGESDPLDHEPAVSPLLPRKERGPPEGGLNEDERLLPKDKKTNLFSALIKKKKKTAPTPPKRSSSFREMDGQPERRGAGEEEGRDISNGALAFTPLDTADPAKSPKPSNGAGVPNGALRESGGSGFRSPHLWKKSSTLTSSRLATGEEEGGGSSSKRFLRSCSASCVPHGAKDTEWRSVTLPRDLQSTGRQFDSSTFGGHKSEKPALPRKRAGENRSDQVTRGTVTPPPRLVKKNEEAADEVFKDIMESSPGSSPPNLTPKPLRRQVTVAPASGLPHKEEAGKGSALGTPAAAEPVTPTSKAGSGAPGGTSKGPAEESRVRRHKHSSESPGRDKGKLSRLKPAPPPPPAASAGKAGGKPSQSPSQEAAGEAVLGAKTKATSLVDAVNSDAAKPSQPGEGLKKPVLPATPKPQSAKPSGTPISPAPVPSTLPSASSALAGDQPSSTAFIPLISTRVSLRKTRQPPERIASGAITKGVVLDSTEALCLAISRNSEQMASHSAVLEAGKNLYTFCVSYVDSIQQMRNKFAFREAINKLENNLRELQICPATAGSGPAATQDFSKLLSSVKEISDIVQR
T1 sequence (P11274 whole entry, looked up): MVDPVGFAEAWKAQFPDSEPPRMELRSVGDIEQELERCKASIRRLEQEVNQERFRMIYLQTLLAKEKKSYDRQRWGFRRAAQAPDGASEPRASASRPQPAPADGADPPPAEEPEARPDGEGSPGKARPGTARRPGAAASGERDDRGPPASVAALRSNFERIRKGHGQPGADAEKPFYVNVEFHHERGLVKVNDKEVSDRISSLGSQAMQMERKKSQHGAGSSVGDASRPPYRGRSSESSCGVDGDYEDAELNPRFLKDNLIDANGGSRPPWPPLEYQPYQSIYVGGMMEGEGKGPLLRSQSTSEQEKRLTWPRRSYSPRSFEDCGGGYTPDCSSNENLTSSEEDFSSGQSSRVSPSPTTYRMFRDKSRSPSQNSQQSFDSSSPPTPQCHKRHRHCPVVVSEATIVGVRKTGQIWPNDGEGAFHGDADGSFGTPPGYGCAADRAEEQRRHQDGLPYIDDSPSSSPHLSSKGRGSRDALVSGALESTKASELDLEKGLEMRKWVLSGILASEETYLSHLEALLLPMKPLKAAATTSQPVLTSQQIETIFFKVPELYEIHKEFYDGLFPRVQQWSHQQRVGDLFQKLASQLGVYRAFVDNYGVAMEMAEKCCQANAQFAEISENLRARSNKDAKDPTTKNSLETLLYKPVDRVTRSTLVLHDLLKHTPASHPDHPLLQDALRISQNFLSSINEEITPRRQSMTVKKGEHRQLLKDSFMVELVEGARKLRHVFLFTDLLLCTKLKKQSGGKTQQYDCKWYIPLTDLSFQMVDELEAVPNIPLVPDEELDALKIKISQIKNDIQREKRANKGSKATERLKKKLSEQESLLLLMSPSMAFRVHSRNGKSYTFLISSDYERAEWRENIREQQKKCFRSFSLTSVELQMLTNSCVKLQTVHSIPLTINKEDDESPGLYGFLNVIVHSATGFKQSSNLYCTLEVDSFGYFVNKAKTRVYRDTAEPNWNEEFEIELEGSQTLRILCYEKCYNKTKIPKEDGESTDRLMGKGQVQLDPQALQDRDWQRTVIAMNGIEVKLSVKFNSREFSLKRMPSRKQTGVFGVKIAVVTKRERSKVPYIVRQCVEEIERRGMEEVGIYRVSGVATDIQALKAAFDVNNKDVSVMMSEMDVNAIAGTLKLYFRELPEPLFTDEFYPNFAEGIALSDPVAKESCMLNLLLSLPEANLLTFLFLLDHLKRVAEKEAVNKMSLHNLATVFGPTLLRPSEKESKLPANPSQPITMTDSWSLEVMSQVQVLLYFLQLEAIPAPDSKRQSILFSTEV
T1 sequence (Q13490 whole entry, looked up): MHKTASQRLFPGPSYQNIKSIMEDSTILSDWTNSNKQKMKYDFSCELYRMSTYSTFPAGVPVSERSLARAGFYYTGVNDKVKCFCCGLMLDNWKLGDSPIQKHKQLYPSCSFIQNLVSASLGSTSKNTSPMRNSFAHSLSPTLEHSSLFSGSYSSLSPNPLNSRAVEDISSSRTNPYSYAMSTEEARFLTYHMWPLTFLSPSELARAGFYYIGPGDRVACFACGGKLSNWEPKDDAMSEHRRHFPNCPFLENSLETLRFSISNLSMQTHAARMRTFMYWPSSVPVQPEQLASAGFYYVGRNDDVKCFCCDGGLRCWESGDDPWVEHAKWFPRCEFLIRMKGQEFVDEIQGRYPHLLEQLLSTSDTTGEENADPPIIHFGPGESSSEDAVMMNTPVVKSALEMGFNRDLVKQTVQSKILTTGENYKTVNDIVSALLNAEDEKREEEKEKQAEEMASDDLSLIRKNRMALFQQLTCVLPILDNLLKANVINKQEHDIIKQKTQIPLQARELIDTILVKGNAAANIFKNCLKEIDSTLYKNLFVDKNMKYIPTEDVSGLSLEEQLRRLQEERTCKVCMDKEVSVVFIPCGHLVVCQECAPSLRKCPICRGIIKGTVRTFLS

[2] = target: T1, Baculoviral IAP repeat-containing protein 2/Tyrosine-protein kinase ABL1/Breakpoint cluster region protein (Homo sapiens); test: Induction of cIAP1-mediated BCR-ABL protein degradation in human K562 cells assessed as BCR-ABL to beta-tubulin ratio at 100 uM after 24 hrs by Western blot analysis relative to control; assay type: cell-based
[3] = target: T1, Baculoviral IAP repeat-containing protein 2/Tyrosine-protein kinase ABL1/Breakpoint cluster region protein (Homo sapiens); test: Induction of cIAP1-mediated BCR-ABL protein degradation in human K562 cells assessed as BCR-ABL to beta-tubulin ratio at 30 uM after 24 hrs by Western blot analysis relative to control; assay type: cell-based
[4] = target: T1, Baculoviral IAP repeat-containing protein 2/Tyrosine-protein kinase ABL1/Breakpoint cluster region protein (Homo sapiens); test: Induction of cIAP1-mediated BCR-ABL protein degradation in human K562 cells assessed as BCR-ABL to beta-tubulin ratio at 100 uM after 8 hrs by Western blot analysis relative to control; assay type: cell-based
[5] = Cytotoxicity against human K562 cells assessed as cell growth at 30 to 100 uM after 24 hrs by cell counting kit-8 assay relative to control; assay type: functional
[6] = target: T1, Baculoviral IAP repeat-containing protein 2/Tyrosine-protein kinase ABL1/Breakpoint cluster region protein (Homo sapiens); test: Induction of cIAP1-mediated BCR-ABL protein degradation in human K562 cells after 8 hrs by Western blot analysis; assay type: cell-based
[7] = target: T2, Bcr/Abl fusion protein (Homo sapiens) (UniProt P00519+P11274); test: Inhibition of BCR-ABL signaling pathway in human K562 cells assessed as suppression of STAT5 phosphorylation at 100 uM after 8 hrs by Western blot analysis; assay type: cell-based
T2 sequence (P00519 whole entry, looked up, the tested form may be a part): as the sequence (P00519 whole entry, looked up) above
T2 sequence (P11274 whole entry, looked up, the tested form may be a part): as the sequence (P11274 whole entry, looked up) above

[8] = target: T2, Bcr/Abl fusion protein (Homo sapiens); test: Inhibition of BCR-ABL signaling pathway in human K562 cells assessed as suppression of CrkL phosphorylation at 100 uM after 8 hrs by Western blot analysis; assay type: cell-based
[9] = target: T2, Bcr/Abl fusion protein (Homo sapiens); test: Inhibition of BCR-ABL phosphorylation in human K562 cells at 100 uM after 8 hrs by Western blot analysis; assay type: cell-based
K562 = test: Cytotoxicity against human K562 cells assessed as cell growth inhibition at 30 to 100 uM after 24 hrs by cell counting kit-8 assay; assay type: functional, cell-based
[10] = Effect on BCR-ABL protein levels in human K562 cells assessed as BCR-ABL to beta-tubulin ratio at 100 uM after 8 hrs by Western blot analysis relative to control; assay type: ADME, cell-based; settings: k562, 8 h
[11] = target: T2, Bcr/Abl fusion protein (Homo sapiens); test: Inhibition of BCR-ABL signaling pathway in human K562 cells assessed as suppression of STAT5 phosphorylation at 100 uM after 8 hrs in presence of imatinib by Western blot analysis; assay type: cell-based
[12] = target: T2, Bcr/Abl fusion protein (Homo sapiens); test: Inhibition of BCR-ABL signaling pathway in human K562 cells assessed as suppression of CrkL phosphorylation at 100 uM after 8 hrs in presence of imatinib by Western blot analysis; assay type: cell-based
[13] = target: T2, Bcr/Abl fusion protein (Homo sapiens); test: Inhibition of BCR-ABL phosphorylation in human K562 cells at 100 uM after 8 hrs in presence of imatinib by Western blot analysis; assay type: cell-based
[14] = Effect on BCR-ABL protein levels in human K562 cells assessed as BCR-ABL to beta-tubulin ratio at 100 uM after 8 hrs in presence of imatinib by Western blot analysis relative to control; assay type: ADME, cell-based; settings: k562, 8 h

Activity [1]	Activity [2]	Activity [3]	Activity [4]	Activity [6]	inhibition [7]	inhibition [8]	inhibition [9]	Activity [10]	inhibition [11]	inhibition [12]	inhibition [13]	Activity [14]	Compound	Activity [5]	growth inhibition (GI) (K562)
121%	81%	105%	113%										Cc1ccc(NC(=O)c2ccc(CNC(=O)CCCCNC(=O)[C@H](CC(C)C)NC(=O)[C@@H](O)[C@H](N)Cc3ccccc3)cc2)cc1Nc1nccc(-c2cccnc2)n1.Cl	100%	
59%	3%	23%	17%	Dose-dependent effect	Active	Active	Active	27%					Cc1ccc(NC(=O)c2ccc(CNC(=O)CCCCCCNC(=O)[C@H](CC(C)C)NC(=O)[C@@H](O)[C@H](N)Cc3ccccc3)cc2)cc1Nc1nccc(-c2cccnc2)n1.Cl		Active
77%	8%	14%	94%										Cc1ccc(NC(=O)c2ccc(CNC(=O)CCCCCCCCCCNC(=O)[C@H](CC(C)C)NC(=O)[C@@H](O)[C@H](N)Cc3ccccc3)cc2)cc1Nc1nccc(-c2cccnc2)n1		Active
									Active	Active	Active	99%	COC(=O)[C@H](CC(C)C)NC(=O)[C@@H](O)[C@H](N)Cc1ccccc1 [BESTATIN METHYL ESTER]		
